Laboratory results from ChEMBL document CHEMBL4359811, “Development of Potent and Selective Pyrazolopyrimidine IRAK4 Inhibitors” (J Med Chem, 2019).

What was measured:
[1] = Volume of distribution at steady state in monkey at 1 mg/kg, iv; format: ADME, organism-based, Macaca mulatta; settings: rhesus monkey, in vivo, read-out: Vdss
Mus musculus [2] = assay: In vivo inhibition of IRAK4 in CpG ODN 1826 induced C57BL/6 mouse assessed as blockade of TLR9 signalling by measuring TNFalpha levels at 100 mg/kg, po treated 1 hr prior to CpG ODN 1826 stimulation and measured after 1 hr by MSD assay; format: functional; set-up: scale not given: the % may be the effect or the level left
[3] = Oral bioavailability in mouse at 100 mg/kg administered as suspension in 10% captisol; format: ADME, organism-based; settings: in vivo
[4] = Protein binding in mouse plasma at 5 uM incubated for 4 hrs by LC-MS/MS analysis; format: ADME, cell-free; settings: read-out: PPB (converted)
[5] = Oral bioavailability in rat at 1 mg/kg; format: ADME, organism-based; settings: in vivo
[6] = AUC (infinity) in rat at 1 mg/kg, po; format: ADME, organism-based; set-up: dose 1 mg/kg, time infinity, route oral; settings: in vivo
[7] = Half-life in monkey at 1 mg/kg, po; format: ADME, organism-based, Macaca mulatta; settings: rhesus monkey, in vivo
[8] = Protein binding in human plasma at 5 uM incubated for 4 hrs by LC-MS/MS analysis; format: ADME, cell-free; settings: read-out: PPB (converted)
Mus musculus [9] = assay: In vivo inhibition of IRAK4 in CpG ODN 1826 induced C57BL/6 mouse assessed as blockade of TLR9 signalling by measuring TNFalpha levels at 3 mg/kg, po treated 1 hr prior to CpG ODN 1826 stimulation and measured after 1 hr by MSD assay; format: functional; set-up: scale not given: the % may be the effect or the level left
[10] = Cmax in mouse at 100 mg/kg, po administered as suspension in 10% captisol; format: ADME, organism-based; set-up: dose 100 mg/kg, route oral; settings: in vivo
[11] = Half-life in mouse at 10 mg/kg, po; format: ADME, organism-based; settings: in vivo
[12] = Plasma clearance in rat at 1 mg/kg, iv; format: ADME, organism-based
[13] = Volume of distribution at steady state in mouse at 1 mg/kg, iv; format: ADME, organism-based; settings: in vivo, read-out: Vdss
[14] = Cmax in rat at 1 mg/kg, po; format: ADME, organism-based; set-up: dose 1 mg/kg, route oral; settings: in vivo
[15] = Half-life in mouse at 300 mg/kg, po administered as suspension in 10% captisol; format: ADME, organism-based; settings: in vivo

C[C@]1(CO)Cc2cc(NC(=O)c3cnn4cccnc34)c(N3CCOCC3)cc2O1
Vd [1]: 4.4 L/kg | Activity (Mus musculus [2]): -89% | bioavailability [3]: 49% | fraction unbound at 4 h, 5 µM [4]: 0.14 | bioavailability [5]: 42% | AUC(0-inf) [6]: 3 µM·h | half-life [7]: 3 h | fraction unbound at 4 h, 5 µM [8]: 0.44 | Activity (Mus musculus [9]): -18% | Cmax [10]: 9.7 µM | half-life [11]: 1.3 h | clearance [12]: 6.6 mL/min/kg | Vd [13]: 1.1 L/kg | Cmax [14]: 0.4 µM | half-life [15]: 42 h
